“Also recorded” adds a separate entry of the source.
Tests used:
[1] = blood at 1, 4, 8 and 24 hours after tail vein injection of 0.2 ml
Description: After collection, the blood was rapidly mixed with heparin to prevent coagulation, and then centrifuged to collect plasma only. The collected plasma was mixed with 90% HNO3, heated and dried, dissolved in 5N HCl, and then diluted appropriately, followed by ICP-MS to determine Gd and Pt contents.

[2] = tested on: human pancreatic cancer cells (BxPC3); experiment: in vivo MRI in orthotopic transplantation model of BxPC3; design: species or system Nude mice; conditions: equal amounts of micelles and free Gd-DTPA
Description: Nude mice (female, 6 weeks of age) were laparotomized under inhalation anesthesia, injected with 0.1 ml of human pancreatic cancer cells (BxPC3) under the serous membrane of the pancreas and then kept for 1 month to prepare an orthotopic transplantation model. MRI was imaged with a 4.7 Tesla Superconductive Magnet Unit (Varian, Palo Alto, Calif.) VXR-MRI Console under the following imaging conditions: repetition time (TR): 500 ms, echo time (TE): 15 ms, field of view (FOV): 32 mm×32 mm, matrix size: 256×256, slice thickness: 2 mm to obtain Spin Echo T1w images. The mice were injected under 5% isoflurane inhalation anesthesia and maintained under 1.2% isoflurane anesthesia during imaging. […] Imaging was performed every 5 minutes during the first 1 hour after injection via the tail vein, then every 15 minutes for 4 hours. Moreover, an equal amount of free Gd-DTPA serving as a control was also injected via the tail vein and imaged in the same manner. The resulting images were analyzed by Mathematica (Wolfram Research Inc.) and Excel (Microsoft, Inc.).

[3] = tested on: human pancreatic cancer cells (BxPC3); experiment: antitumor effect (tumor size) on subcutaneous BxPC3 tumor; type: in vivo, Nude mice; conditions: Pt 8 mg/ml

Row | SMILES | residual drug content in plasma / retention in blood [1] | contrast enhancement / intensity in tumor [2] | antitumor effect (tumor size), words ([3]; 0.2 ml i.v. on day 0, 2 and 4) | antitumor effect (tumor size), words ([3]; 0.2 ml i.v. on day 0, 2 and 4, listed as Oxaliplatin)
1 | O=C([O-])CN(CCN(CC(=O)[O-])CC(=O)O)CCN(CC(=O)[O-])CC(=O)O.[Gd+3] [Gd-DTPA, gadolinium diethylene triamine pentaacetic acid] | rapidly disappear from plasma | little contrast enhancement; also recorded: little increase in intensity | – | –
2 | O=C1[O][Pt]2([NH][C@@H]3CCCC[C@H]3[NH]2)[O]C1=O [oxaliplatin] | rapidly disappear from plasma | – | substantially the same tendency as the control | little therapeutic effect

From patent US8961949B2, “Polymer-metal complex composite having MRI contrast ability and MRI contrasting and/or antitumor composition using the same” (Japan Science and Technology Agency, priority 2008, dated 2015)
